Assay results published in US20040180879A1, “Novel method of treating vasomotor symptoms” (priority 2002, published 2004).
“Also recorded” adds a separate entry of the source.

Columns and labels:
[1] = desipramine 300-500 mg/day; fluoxetine 20 mg/day; cited from earlier work
[2] = tested on: morphine-dependent rat model (MD model) of hot flush; experiment: morphine-dependent naloxone-induced flush (MD model) of hot flush, tail skin temperature; format: in vivo; conditions: for effect of the combination with 5-HT2a receptor antagonist on abating naloxone-induced flush: MDL-100907 0.01 mg/kg sc + desipramine 1 mg/kg or venlafaxine 10 mg/kg sc; for effect on MDL-100907-induced pre-naloxone flush (words): given sc 40 min prior to naloxone, after MDL-100907 0.01 mg/kg (55 min prior), desipramine 1 mg/kg; for effect on MDL-100907-induced pre-naloxone flush (words) / abatement of 5-HT2a receptor antagonist-induced pre-naloxone flush: venlafaxine 10 mg/kg, 15 min pre-naloxone; for abatement of 5-HT2a receptor antagonist-induced pre-naloxone flush: given sc after MDL-100907 (0.01 mg/kg), desipramine 1.0 mg/kg, compared to MDL treated animals

Q: Which “side effects of high doses alone” value [1] does the source give for `CNCCC(Oc1ccc(C(F)(F)F)cc1)c1ccccc1` (centres unmarked) [fluoxetine] here?
A: can induce vomiting, nausea, sweating and flushes

Q: For `COc1ccc(C(CN(C)C)C2(O)CCCCC2)cc1` (centres unmarked) [venlafaxine], which “effect of the combination with 5-HT2a receptor antagonist on abating naloxone-induced flush” value ([2]; 15 min post-naloxone) is on record?
A: enhanced abatement of a naloxone-induced flush; also recorded: can enhance this effect

Q: And the “effect on MDL-100907-induced pre-naloxone flush (words)” value [2]?
A: abates an MDL-100907-induced flush

Q: What about the “effect on MDL-100907-induced pre-naloxone flush (words)” value ([2]; listed as Venlafaxine) of the same compound?
A: reversed

Q: What about the “abatement of 5-HT2a receptor antagonist-induced pre-naloxone flush” value [2] of the same compound?
A: 60%

Q: For `COc1cc(CC(C)N)c(OC)cc1I` (centres unmarked) [DOI], which “effect of 5-HT2a receptor agonist on MDL-100907-induced flush” value ([2]; DOI 0.3 mg/kg sc, 15 min prior to MDL-100907 (0.01 and 0.1 mg/kg)) is on record?
A: block; also recorded: abated; also recorded: abatement

Q: Which results are given for `CNCCCN1c2ccccc2CCc2ccccc21` [desipramine]?
A: side effects of high doses alone [1]: can induce vomiting, nausea, sweating and flushes; effect of the combination with 5-HT2a receptor antagonist on abating naloxone-induced flush ([2]; 15 min post-naloxone): efficacy can be enhanced; abatement of naloxone-induced flush on co-administration with 5-HT2a receptor antagonist ([2]; desipramine 1.0 mg/kg sc + MDL-100907 0.01 mg/kg sc, 15 min post-naloxone): 80%; abatement of naloxone-induced hot flush ([2]; desipramine alone, approximate ED50 (1.0 mg/kg sc), ovariectomized morphine-dependent rats): 50%; effect on MDL-100907-induced pre-naloxone flush (words) [2]: abates an MDL-100907-induced flush; effect on MDL-100907-induced pre-naloxone flush (words) ([2]; listed as Desipramine): reversed; abatement of 5-HT2a receptor antagonist-induced pre-naloxone flush [2]: 75%

Q: Which “effect of the combination with 5-HT2a receptor antagonist on abating naloxone-induced flush” value ([2]; 15 min post-naloxone, listed as MDL-100902) does the source give for `COc1cccc(C(O)C2CCN(CCc3ccc(F)cc3)CC2)c1OC` (stereo not drawn) [MDL-100907, (+)-α-(2,3-dimethoxyphenyl)-1-[2-(4-fluorophenyl)ethyl]-4-piperidinemethanol] here?
A: enhances desipramine's effect on abating naloxone-induced flush; also recorded: enhances venlafaxine's effect on a naloxone-induced flush

Q: What about the “effect of 5-HT2a receptor antagonist on DOI alleviation of naloxone-induced flush” value ([2]; MDL-100907 (0.01 and 0.1 mg/kg sc) after DOI 0.3 mg/kg sc, maximal flush, 15 min post-naloxone) of the same compound?
A: reverse the efficacy of the 5-HT2a agonist in abating the naloxone-induced flush; also recorded: reversed the DOI alleviation of the naloxone-induced flush

Q: And the “effect on tail skin temperature (TST) prior to naloxone (5-HT2a antagonist-induced flush)” value ([2]; MDL-100907 alone, 0.01 mg/kg sc, 55 min prior to naloxone, 0.01 mg/kg)?
A: induced hot flush; also recorded: induced a significant increase in TST

Q: What about the “effect on naloxone-induced hot flush” value ([2]; MDL-100907 alone, 0.01 mg/kg sc, post-naloxone) of the same compound?
A: enhanced the naloxone-induced hot flush
